The test has as its target T1, AR (Homo sapiens, UniProt P10275, T878A).
T1 sequence (P10275 1-920 T878A): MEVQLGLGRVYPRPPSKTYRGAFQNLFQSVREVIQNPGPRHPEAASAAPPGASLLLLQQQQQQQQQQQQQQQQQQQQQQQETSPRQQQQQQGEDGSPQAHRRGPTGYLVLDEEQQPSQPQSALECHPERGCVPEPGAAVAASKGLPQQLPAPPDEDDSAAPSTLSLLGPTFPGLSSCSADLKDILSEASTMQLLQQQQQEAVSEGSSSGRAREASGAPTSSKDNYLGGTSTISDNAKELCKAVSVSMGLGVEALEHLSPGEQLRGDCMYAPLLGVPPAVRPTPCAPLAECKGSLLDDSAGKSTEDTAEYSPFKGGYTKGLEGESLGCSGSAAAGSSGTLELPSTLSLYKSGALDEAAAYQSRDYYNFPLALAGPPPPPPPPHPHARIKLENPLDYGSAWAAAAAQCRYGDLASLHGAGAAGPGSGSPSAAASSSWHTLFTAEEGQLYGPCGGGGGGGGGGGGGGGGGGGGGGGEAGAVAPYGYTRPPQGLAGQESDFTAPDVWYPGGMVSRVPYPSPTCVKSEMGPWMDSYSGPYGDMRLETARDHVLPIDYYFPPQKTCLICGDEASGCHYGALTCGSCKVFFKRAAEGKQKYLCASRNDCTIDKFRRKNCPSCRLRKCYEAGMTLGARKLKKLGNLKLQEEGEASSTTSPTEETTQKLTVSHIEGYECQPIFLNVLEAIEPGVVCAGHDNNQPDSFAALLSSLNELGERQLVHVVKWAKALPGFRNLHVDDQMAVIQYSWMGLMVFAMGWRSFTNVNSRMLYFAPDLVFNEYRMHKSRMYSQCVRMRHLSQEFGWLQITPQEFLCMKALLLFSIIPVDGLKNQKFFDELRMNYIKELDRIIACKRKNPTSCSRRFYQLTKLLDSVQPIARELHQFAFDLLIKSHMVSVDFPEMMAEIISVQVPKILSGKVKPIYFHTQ
In words: Effects of compounds on AR expression in LNCaP cells (ELISA, DC50). Type of test: cell-based. Details: Measurement of the Effects of Drugs on the Expression of AR in Cells by ELISA Method; endogenous in cells; host or cells: LNCaP. The settings on record: 24 hours of drug treatment, AR by ELISA. The method, then:
Activity Assay Example 1: Effects of Compounds on AR Expression in LNCaP Cells
1. Cell Line and Cell Culture
Human prostate cancer cells LNCaP (Shanghai Chinese Academy of Sciences Cell Bank). LNCaP was cultured in 1640 medium containing 10% fetal bovine serum. The cells grow in clusters, with weak adhesion to the bottom of the culture flask, slow proliferation, with a multiplication time of 72 h. The cells are closely adhered to each other and need to be digested with 0.05% trypsin containing 0.025% EDTA. The cells were passaged every 3 days. The cells were cultured at 37° C. and 5% CO2 in a humidified incubator
2. Cell plating: The supernatant was discarded, and the Lncap cells in the logarithmic growth phase were taken, washed with PBS once, and added with appropriate 0.05% trypsin digestion solution to be fully digested into single cell suspension, and centrifuged, resuspended and counted to make the number of cells about 15,000 per well, then inoculated in a 96-well plate, placed at 37° C., 5% CO2 and cultured overnight for 24 h.
3. Preparation and Addition of Compound Solutions
About 2 mg of each compound was weighed and dissolved in DMSO to make the stock solution with a concentration of 10 mmol/L. Dilution process (final concentration dilution: 2, 0.667, 0.222, 0.074, 0.0245, 0.008, 0.003, 0.001, 0.0003, 0.0001 μmol/L): 10 centrifuge tubes with a volume of 1.5 mL were taken and numbered 1, 2, 3, 4, 5, 6, 7, 8, 9, and 10, 80 μL DMSO was added to tube No. 1, and 60 μL DMSO was added to tubes No. 2 to No. 10, 20 μL of the stock solution was pipetted to tube No. 1 and mixed well; 30 μL was pipetted from tube No. 1 into tube No. 2 and mixed well. 30 μL was pipetted from tube No. 2 into tube No. 3 and mixed well, and so forth, to obtain samples No. 4-10, and to obtain working solutions of compounds of different concentrations respectively. 2 μL was pipetted from the above-mentioned tubes No. 1-10 into each corresponding sterile deep-well plates, added with 198 μL of culture medium, and mixed well. 11 ul was added to each well of the 96-well cell plate cultured overnight to obtain the corresponding desired concentrations (2, 0.667, 0.222, 0.074, 0.0245, 0.008, 0.003, 0.001, 0.0003, 0.0001 μmol/L).
4. Measurement of the Effects of Drugs on the Expression of AR in Cells by ELISA Method
After 24 hours of drug treatment, the supernatant was removed, and 200 μL of PBS was added to wash cells, and then the supernatant was removed, and 100 μL of cell lysate was added to lyse cells on ice for 20 min, then the cell lysate was centrifuged at 4000 rpm for 20 min at 4° C. and the supernatant was taken for later use. The measurement steps of the supernatant were according to the ELISA kit instructions:
4.1 The slats required for the test were taken out from the sealed bag that has been equilibrated to room temperature. Please put the unused slats and desiccant back into the aluminum foil bag and compress the self-sealing strip, seal the bag, and store at 4° C.
4.2 Standards and sample diluents were added to blank wells, and different concentrations of standards (10 ul/well) and sample diluents (90 ul/well) were added to the remaining corresponding wells, and the reaction wells were sealed with sealing tape, and refrigerated at 4° C. overnight.
4.3 Primary antibody was diluted with dilution buffer to the corresponding concentration and added to each well in 100 ul/well. The reaction wells were sealed with sealing tape and incubated at 37° C. for 60 min.
4.4 Secondary antibody was diluted with dilution buffer to the corresponding concentration and added to each well in 100 ul/well. The reaction wells were sealed with sealing tape and incubated at 37° C. for 30 min.
4.5 The reaction wells were added with 100 ul/well of substrate (TMB) and incubated at room temperature for 30 min.
4.6 The reaction wells were added with 100 ul/well of stop solution, mixed well and then the OD450 value was measured with a microplate reader. […]
For orientation: ELISA stands for enzyme-linked immunosorbent assay.

The source of these data is patent publication US12606552B2, “Bifunctional compound, preparation method therefor, and use thereof” (SUZHOU KINTOR PHARMACEUTICALS, INC., priority 2020, dated 2026).

As to `Cc1ncsc1-c1ccc(CNC(=O)[C@@H]2C[C@@H](O)CN2C(=O)[C@@H](NC(=O)COCC(F)CCOc2ccc(-c3ccc(N4C(=S)N(c5ccc(C#N)c(C(F)(F)F)c5F)C(=O)C4(C)C)cn3)cc2)C(C)(C)C)cc1` (stereo partly drawn) [Compound A171], the DC50 came out at 80.2 nM.
As to `COc1c(C#N)ccc(N2C(=O)C(C)(C)N(c3ccc(-c4ccc(OCCCCOCC(=O)N[C@H](C(=O)N5C[C@H](O)C[C@H]5C(=O)NCc5ccc(-c6scnc6C)cc5)C(C)(C)C)cc4)nc3)C2=S)c1F` [Compound A185], the DC50 came out at 49.8 nM.
Compound `CC1(C)C(=O)N(c2ccc(C#N)c(C(F)(F)F)c2F)C(=S)N1c1ccc(C2CC2C(=O)NCCCCNC(=O)COc2cccc3c2C(=O)N(C2CCC(=O)NC2=O)C3=O)nc1` (stereo not drawn) [Compound A26] gave a DC50 of over 2000 nM.
For the compound `CC(C)(C)[C@H](NC(=O)COCCCCOc1ccc(-c2ccc(N3C(=S)N(c4ccc(C#N)c(C(F)(F)F)c4F)C(=O)C3(C)C)cn2)cc1C(F)(F)F)C(=O)N1C[C@H](O)C[C@H]1C(=O)NCc1ccccc1` [Compound A122], the DC50 came to 155 nM.
In the case of `Cc1ncsc1-c1ccc(CNC(=O)[C@@H]2C[C@@H](O)CN2C(=O)[C@@H](NC(=O)COCCCCn2cc(-c3ccc(N4C(=S)N(c5ccc(C#N)c(C(F)(F)F)c5F)C(=O)C4(C)C)cn3)ccc2=O)C(C)(C)C)cc1` [Compound A98] it was 281 nM; in that of `Cc1ncsc1-c1c[nH]c([C@@H]2C[C@@H](O)CN2C(=O)[C@@H](NC(=O)COCCCCOc2ccc(-c3ccc(N4C(=S)N(c5ccc(C#N)c(C(F)(F)F)c5F)C(=O)C4(C)C)cn3)cc2)C(C)(C)C)n1` [Compound A198], 42.8 nM; in that of `Cc1ncsc1-c1ccc(CNC(=O)[C@@H]2C[C@@H](O)CN2C(=O)[C@@H](NC(=O)COCCOCCCCOc2ccc(N3C(=S)N(c4ccc(C#N)c(C(F)(F)F)c4F)C(=O)C3(C)C)cn2)C(C)(C)C)cc1` [Compound A254], 52.5 nM.
Turning to `Cc1ncoc1-c1c[nH]c([C@@H]2C[C@@H](O)CN2C(=O)[C@@H](NC(=O)COCCCCOc2ccc(-c3ncc(N4C(=S)N(c5ccc(C#N)c(C(F)(F)F)c5F)C(=O)C4(C)C)cc3F)c(C(F)(F)F)c2)C(C)(C)C)n1` [Compound A224], the DC50 was found to be 75.7 nM.
In the case of `Cc1ncsc1-c1ccc(CNC(=O)[C@@H]2C[C@@H](O)CN2C(=O)[C@@H](NC(=O)COCC(F)(F)CCOc2ccc(-c3ncc(N4C(=S)N(c5ccc(C#N)c(C(F)(F)F)c5F)C(=O)C4(C)C)cc3F)c(C(F)(F)F)c2)C(C)(C)C)cc1` [Compound A168] it was 159 nM; in that of `Cc1ncsc1-c1ccc(CNC(=O)[C@@H]2C[C@@H](O)CN2C(=O)[C@@H](NC(=O)[C@H]2CC[C@H](CNC(=O)c3ccc(-c4ccc(N5C(=S)N(c6ccc(C#N)c(C(F)(F)F)c6F)C(=O)C5(C)C)cn4)cc3)CC2)C(C)(C)C)cc1` [Compound A59], 48.6 nM.
The same measure for `CC(C)(C)[C@H](NC(=O)COCCCCCOc1ccc(-c2ncc(N3C(=S)N(c4ccc(C#N)c(C(F)(F)F)c4F)C(=O)C3(C)C)cc2F)cc1F)C(=O)N1C[C@H](O)C[C@H]1C(=O)NCc1ccccc1` [Compound A118]: over 2000 nM; for `Cn1cncc1-c1c[nH]c([C@@H]2C[C@@H](O)CN2C(=O)[C@@H](NC(=O)COCCCCOc2ccc(-c3ncc(N4C(=S)N(c5ccc(C#N)c(C(F)(F)F)c5F)C(=O)C4(C)C)cc3F)c(C(F)(F)F)c2)C(C)(C)C)n1` [Compound A233]: 194 nM.
The compound `CC1(C)C(=O)N(c2ccc(C#N)c(C(F)(F)F)c2F)C(=S)N1c1ccc(C2CC2C(=O)NCCCNC(=O)COc2cccc3c2C(=O)N(C2CCC(=O)NC2=O)C3=O)nc1` (stereo not drawn) [Compound A25] returned a DC50 of over 2000 nM.
Compound `CC1(C)C(=O)N(c2ccc(C#N)c(C(F)(F)F)c2F)C(=S)N1c1cnc(-c2cc(F)c(OC3CCN(C(=O)COc4cccc5c4C(=O)N(C4CCC(=O)NC4=O)C5=O)CC3)c(F)c2)c(F)c1` (stereo not drawn) [Compound A191] had a DC50 of 162 nM.
The same measure for `CC(C)(C)[C@H](NC(=O)COCCOc1ccc(-c2ncc(N3C(=S)N(c4ccc(C#N)c(C(F)(F)F)c4F)C(=O)C3(C)C)cc2F)cc1F)C(=O)N1C[C@H](O)C[C@H]1C(=O)NCc1ccccc1` [Compound A130]: 131 nM.
In the case of `CC(C)(C)[C@H](NC(=O)COCCCCOc1ccc(-c2ccc(N3C(=S)N(c4ccc(C#N)c(C(F)(F)F)c4F)C(=O)C3(C)C)cn2)cc1C(F)(F)F)C(=O)N1C[C@H](O)C[C@H]1C(=O)NCc1ccc(C(N)=O)cc1` [Compound A121], the DC50 came to 336 nM.
`CC(=O)O[C@@H]1C[C@@H](C(=O)NCc2ccc(-c3scnc3C)cc2)N(C(=O)[C@@H](NC(=O)COCCCCOc2ccc(-c3ncc(N4C(=S)N(c5ccc(C#N)c(C(F)(F)F)c5F)C(=O)C4(C)C)cc3F)c(C(F)(F)F)c2)C(C)(C)C)C1` [Compound A146] returned a DC50 of 259 nM.
The same measure for `CC(=O)O[C@@H]1C[C@@H](C(=O)NCc2ccc(-c3scnc3C)cc2)N(C(=O)[C@@H](NC(=O)COCCCCOc2c(F)cc(-c3ncc(N4C(=S)N(c5ccc(C#N)c(C(F)(F)F)c5F)C(=O)C4(C)C)cc3F)cc2F)C(C)(C)C)C1` [Compound A152]: 167 nM; for `Cc1ncsc1-c1ccc(CNC(=O)[C@@H]2C[C@@H](O)CN2C(=O)[C@@H](NC(=O)COCCCCN2CC=C(c3ccc(N4C(=S)N(c5ccc(C#N)c(C(F)(F)F)c5F)C(=O)C4(C)C)cn3)CC2)C(C)(C)C)cc1` [Compound A135]: 1540 nM; for `Cc1ncsc1-c1ccc(CNC(=O)[C@@H]2C[C@@H](O)CN2C(=O)[C@@H](NC(=O)COCC(F)C(F)COc2ccc(-c3ccc(N4C(=S)N(c5ccc(C#N)c(C(F)(F)F)c5F)C(=O)C4(C)C)cn3)cc2)C(C)(C)C)cc1` (stereo partly drawn) [Compound A169]: 92.6 nM.
The same measure for `Cc1ncsc1-c1ccc(CNC(=O)[C@@H]2C[C@@H](O)CN2C(=O)[C@@H](NC(=O)CCCn2cc(COc3ccc(-c4ccc(N5C(=S)N(c6ccc(C#N)c(C(F)(F)F)c6F)C(=O)C5(C)C)cn4)cc3)nn2)C(C)(C)C)cc1` [Compound A81]: 63.3 nM.
